Measured values published in ChEMBL document CHEMBL2311409, “Design, synthesis and biological evaluation of coumarin alkylamines as potent and selective dual binding site inhibitors of acetylcholinesterase” (Bioorg Med Chem, 2013).

Columns and labels:
[1] = biological target: T1, Acetylcholinesterase (Bos taurus, UniProt P23795)
T1 sequence (P23795 whole entry): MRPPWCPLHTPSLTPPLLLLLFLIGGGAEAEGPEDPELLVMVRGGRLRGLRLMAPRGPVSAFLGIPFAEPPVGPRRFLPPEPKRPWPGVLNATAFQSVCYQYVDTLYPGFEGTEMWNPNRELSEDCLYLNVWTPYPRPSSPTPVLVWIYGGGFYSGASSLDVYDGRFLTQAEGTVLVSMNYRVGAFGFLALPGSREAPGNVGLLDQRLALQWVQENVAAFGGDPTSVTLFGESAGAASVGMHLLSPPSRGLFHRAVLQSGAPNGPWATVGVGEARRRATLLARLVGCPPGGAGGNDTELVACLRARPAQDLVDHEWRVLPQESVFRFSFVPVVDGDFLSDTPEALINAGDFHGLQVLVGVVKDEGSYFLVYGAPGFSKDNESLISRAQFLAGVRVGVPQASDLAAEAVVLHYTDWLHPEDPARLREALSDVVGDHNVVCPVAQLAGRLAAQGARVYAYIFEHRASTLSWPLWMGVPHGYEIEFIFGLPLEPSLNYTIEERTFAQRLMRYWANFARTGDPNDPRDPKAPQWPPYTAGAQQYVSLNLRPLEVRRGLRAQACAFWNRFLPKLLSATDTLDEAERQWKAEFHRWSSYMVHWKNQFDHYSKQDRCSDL
Description: Inhibition of bovine acetylcholinesterase using acetylcholine iodide as substrate incubated for 20 mins prior to substrate addition measured after 3 mins by Ellman's method

[2] = biological target: Cholinesterase (Equus caballus, UniProt P81908)
Chain of Cholinesterase (P81908 whole entry): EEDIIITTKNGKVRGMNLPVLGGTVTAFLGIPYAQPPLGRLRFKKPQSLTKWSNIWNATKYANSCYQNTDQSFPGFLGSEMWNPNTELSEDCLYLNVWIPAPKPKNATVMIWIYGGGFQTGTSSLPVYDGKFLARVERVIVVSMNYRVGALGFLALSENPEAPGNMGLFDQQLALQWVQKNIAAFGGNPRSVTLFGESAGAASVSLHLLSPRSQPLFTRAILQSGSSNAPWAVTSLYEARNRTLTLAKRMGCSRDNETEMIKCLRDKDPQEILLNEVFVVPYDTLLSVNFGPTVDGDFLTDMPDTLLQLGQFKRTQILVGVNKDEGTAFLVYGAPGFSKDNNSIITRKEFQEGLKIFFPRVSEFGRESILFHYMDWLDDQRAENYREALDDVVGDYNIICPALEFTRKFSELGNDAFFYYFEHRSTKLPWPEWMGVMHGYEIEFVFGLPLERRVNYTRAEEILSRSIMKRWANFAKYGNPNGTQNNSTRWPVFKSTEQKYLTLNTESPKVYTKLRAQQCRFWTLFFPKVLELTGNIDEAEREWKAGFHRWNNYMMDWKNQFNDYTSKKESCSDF
Description: Inhibition of equine butyrylcholinesterase using butyrylthiocholine as substrate incubated for 20 mins prior to substrate addition measured after 3 mins by Ellman's method

[3] = biological target: Cholinesterase (Equus caballus) (UniProt P81908); experiment: Inhibition of equine butyrylcholinesterase using butyrylthiocholine as substrate at 10 uM incubated for 20 mins prior to substrate addition measured after 3 mins by Ellman's method
Chain of Cholinesterase (Equus caballus) (P81908 whole entry): as above

[4] = biological target: T1, Acetylcholinesterase; experiment: Mixed-type reversible inhibition of bovine acetylcholinesterase using S-acetylthiocholine as substrate incubated for 20 mins prior to substrate addition measured after 3 mins by Lineweaver-Burk plot analysis
[5] = biological target: Acetylcholinesterase (Homo sapiens, UniProt P22303); experiment: Inhibition of human acetylcholinesterase
Chain of Acetylcholinesterase (Homo sapiens, UniProt P22303) (P22303 whole entry): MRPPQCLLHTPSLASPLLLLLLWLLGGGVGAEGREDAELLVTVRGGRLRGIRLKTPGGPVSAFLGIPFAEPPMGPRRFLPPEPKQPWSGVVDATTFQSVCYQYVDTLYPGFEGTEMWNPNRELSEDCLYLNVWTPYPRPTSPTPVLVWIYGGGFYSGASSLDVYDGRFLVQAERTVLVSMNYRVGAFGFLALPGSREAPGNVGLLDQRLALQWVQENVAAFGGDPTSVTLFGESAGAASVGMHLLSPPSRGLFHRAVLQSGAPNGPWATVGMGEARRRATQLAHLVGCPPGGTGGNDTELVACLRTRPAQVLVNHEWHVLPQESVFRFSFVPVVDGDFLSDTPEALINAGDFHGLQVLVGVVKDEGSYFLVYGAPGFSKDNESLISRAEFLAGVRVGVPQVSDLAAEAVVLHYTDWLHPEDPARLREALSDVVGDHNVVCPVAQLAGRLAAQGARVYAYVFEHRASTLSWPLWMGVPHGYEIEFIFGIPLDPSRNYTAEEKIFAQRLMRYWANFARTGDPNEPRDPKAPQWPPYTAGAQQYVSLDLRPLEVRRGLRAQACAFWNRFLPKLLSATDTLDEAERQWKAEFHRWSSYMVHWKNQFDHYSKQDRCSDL

Row | Structure (SMILES) | IC50 [1] | IC50 [2] | inhibition [3] | Ki [4] | IC50 [5]
1 | COc1cc2cc(C(=O)OCC3CCN(Cc4ccccc4)CC3)c(=O)oc2cc1OC | 73 nM | 4.7 µM |  |  | 
2 | COc1cc2cc(OCC3CCN(Cc4ccccc4)CC3)c(=O)oc2cc1OC | 21 nM | 3.9 µM |  |  | 
3 | COc1ccc2oc(=O)c(OC3CCN(Cc4ccccc4)CC3)cc2c1 | 7400 nM |  | 34% |  | 
4 | COc1cc2cc(C(=O)OC3CCN(Cc4ccccc4)CC3)c(=O)oc2cc1OC | 14 nM |  | 12% |  | 
5 | CN(CCCOc1cc2ccccc2oc1=O)Cc1ccccc1 | 4500 nM | 4 µM |  |  | 
6 | COc1cc2cc(C(=O)NC3CCN(Cc4ccccc4)CC3)c(=O)oc2cc1OC | 28 nM |  | 19% |  | 
7 | CN(CCC(=O)Nc1cc2ccccc2oc1=O)Cc1ccccc1 | 66000 nM |  | 0% |  | 
8 | COc1cc2cc(C(=O)OCCCN(C)Cc3ccccc3)c(=O)oc2cc1OC | 111 nM |  | 38% |  | 
9 | COc1ccc2cc(OC3CCN(Cc4ccccc4)CC3)c(=O)oc2c1 | 12000 nM |  | 46% |  | 
10 | COc1cc2cc(NC(=O)CCCN(C)Cc3ccccc3)c(=O)oc2cc1OC | 330 nM |  | 43% |  | 
11 | COc1cc2cc(NC(=O)[C@H]3CCC[C@@H](NCc4ccccc4)C3)c(=O)oc2cc1OC (relative stereo) | 7.6 nM | 33 µM |  | 8.6 nM | 43 nM
12 | COc1cc2cc(C(=O)NCCCN(C)Cc3ccccc3)c(=O)oc2cc1OC | 86 nM |  | 24% |  | 
13 | COc1cc2cc(C(=O)NCCN(C)Cc3ccccc3)c(=O)oc2cc1OC | 9000 nM |  | 15% |  | 
14 | COc1cc2cc(C(=O)NCCCCN(C)Cc3ccccc3)c(=O)oc2cc1OC | 21 nM |  | 23% |  | 
15 | COc1cc2cc(NC(=O)CN(C)Cc3ccccc3)c(=O)oc2cc1OC | 26000 nM |  | 11% |  | 
16 | O=c1oc2ccccc2cc1OC1CCN(Cc2ccccc2)CC1 | 4500 nM | 7.9 µM |  |  | 
17 | COc1cc2cc(C(=O)N3CCN(Cc4ccccc4)CC3)c(=O)oc2cc1OC | 4000 nM |  | 12% |  | 
18 | COc1cc2cc(NC(=O)CCN(C)Cc3ccccc3)c(=O)oc2cc1OC | 14000 nM |  | 0% |  | 
19 | COc1cc2cc(OC3CCN(Cc4ccccc4)CC3)c(=O)oc2cc1OC | 1500 nM |  | 36% |  | 
